Consider one molecule from patent US20100292229A1, “TRYPHOSTIN-ANALOGS FOR THE TREATMENT OF CELL PROLIFERATIVE DISEASES” (The Board of Regents of the University of Texas System, priority 2006, published 2010).

SMILES strings stand for the structures. Read-outs that look alike come from different tables or passages of the source.

One may read the IC50 as the concentration that gives 50% inhibition.

In one experiment the target is T1, BCR-ABL (Homo sapiens, UniProt P00519).
T1 construct: The BCR-ABL expressing CML cell line (K562); endogenous in cells; host or cells: K562; the other entry of the earlier key: BCR (P11274, Breakpoint cluster region protein)
T1 sequence (P00519 with tags, fused parts or gaps): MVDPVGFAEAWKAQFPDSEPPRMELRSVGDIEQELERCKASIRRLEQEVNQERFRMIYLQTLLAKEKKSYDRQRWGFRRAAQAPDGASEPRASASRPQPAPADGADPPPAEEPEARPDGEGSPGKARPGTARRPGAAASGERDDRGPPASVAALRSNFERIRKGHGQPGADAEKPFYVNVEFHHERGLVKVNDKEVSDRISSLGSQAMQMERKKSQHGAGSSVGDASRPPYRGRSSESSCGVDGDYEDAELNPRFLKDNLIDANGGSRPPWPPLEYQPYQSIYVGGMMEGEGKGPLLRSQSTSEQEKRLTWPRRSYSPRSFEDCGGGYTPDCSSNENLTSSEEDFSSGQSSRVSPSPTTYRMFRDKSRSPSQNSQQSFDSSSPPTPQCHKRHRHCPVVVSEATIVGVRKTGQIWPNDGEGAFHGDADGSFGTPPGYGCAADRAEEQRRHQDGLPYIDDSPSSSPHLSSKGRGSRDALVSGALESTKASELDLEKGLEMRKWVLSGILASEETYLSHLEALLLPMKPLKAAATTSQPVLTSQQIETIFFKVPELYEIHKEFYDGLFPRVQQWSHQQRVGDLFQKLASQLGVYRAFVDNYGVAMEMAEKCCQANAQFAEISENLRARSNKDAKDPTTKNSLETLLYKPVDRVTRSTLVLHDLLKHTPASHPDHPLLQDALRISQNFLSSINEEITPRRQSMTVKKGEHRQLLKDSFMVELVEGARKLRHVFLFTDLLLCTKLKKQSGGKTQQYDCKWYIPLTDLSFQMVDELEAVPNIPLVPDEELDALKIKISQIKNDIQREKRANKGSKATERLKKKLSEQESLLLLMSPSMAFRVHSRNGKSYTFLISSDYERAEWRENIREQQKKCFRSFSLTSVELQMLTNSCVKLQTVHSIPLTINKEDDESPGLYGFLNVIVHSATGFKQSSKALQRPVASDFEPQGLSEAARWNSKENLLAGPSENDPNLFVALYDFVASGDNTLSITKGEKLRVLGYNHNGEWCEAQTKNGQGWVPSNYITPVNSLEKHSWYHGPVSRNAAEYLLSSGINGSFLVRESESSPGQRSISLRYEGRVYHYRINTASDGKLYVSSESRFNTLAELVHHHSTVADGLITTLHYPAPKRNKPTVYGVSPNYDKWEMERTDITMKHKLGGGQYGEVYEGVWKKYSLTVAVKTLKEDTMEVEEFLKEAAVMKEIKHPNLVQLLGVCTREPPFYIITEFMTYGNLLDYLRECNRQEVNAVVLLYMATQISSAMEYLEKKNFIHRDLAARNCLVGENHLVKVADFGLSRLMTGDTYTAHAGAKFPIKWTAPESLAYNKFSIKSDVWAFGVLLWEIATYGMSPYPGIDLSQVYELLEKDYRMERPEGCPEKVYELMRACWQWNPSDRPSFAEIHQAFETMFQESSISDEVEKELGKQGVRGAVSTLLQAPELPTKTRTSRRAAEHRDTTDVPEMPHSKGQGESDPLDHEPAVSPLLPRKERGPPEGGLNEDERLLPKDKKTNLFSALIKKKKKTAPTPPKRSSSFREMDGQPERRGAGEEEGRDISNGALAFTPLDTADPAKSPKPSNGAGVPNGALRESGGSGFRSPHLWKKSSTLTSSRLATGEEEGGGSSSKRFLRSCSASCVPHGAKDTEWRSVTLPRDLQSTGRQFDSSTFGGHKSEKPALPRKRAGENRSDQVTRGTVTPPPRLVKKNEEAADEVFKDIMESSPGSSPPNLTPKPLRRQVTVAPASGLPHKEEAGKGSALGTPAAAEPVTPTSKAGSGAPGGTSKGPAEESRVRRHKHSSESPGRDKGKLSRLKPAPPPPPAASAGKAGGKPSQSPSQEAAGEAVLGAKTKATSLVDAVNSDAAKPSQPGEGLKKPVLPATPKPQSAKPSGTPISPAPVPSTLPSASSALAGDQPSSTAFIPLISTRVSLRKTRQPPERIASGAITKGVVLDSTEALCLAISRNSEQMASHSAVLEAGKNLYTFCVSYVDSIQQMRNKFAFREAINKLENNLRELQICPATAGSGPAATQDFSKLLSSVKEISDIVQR
Description: BCR-ABL protein level and distribution in K562 cells. It counts as cell-based. The protocol:
Top: The BCR-ABL expressing CML cell line (K562) was incubated with 5 μM Degrasyn for the interval noted before cells were lysed and protein extracts were analyzed for BCR-ABL protein (using anti-Abl) levels by immunoblotting. The blot was stripped and reprobed for actin as a protein loading control.
Bottom: RNA from cells treated as described above was isolated (TRIzol Reagent) and used as a template to generate cDNA. This material was then used to prime a real-time PCR reaction for bcr-abl and ubiquitin (Ub) transcripts. The values are reported in terms of the ratio of bcr-abl to Ub.
K562 cells were treated with Degrasyn (2 h, 5 μM) before cells were lysates were prepared and analyzed for BCR-ABL, c-Abl and BCR protein levels. Actin was probed on the stripped blot to control for protein loading.
K562 cells were treated with nothing (Control), vehicle (DMSO; 0.1%), 5 μM Degrasyn or 5 μM geldanamycin for the interval indicated. Cell lysates were prepared and BCR-ABL, HSP70 and Actin were subjected to immunoblotting.
K562 cells were treated with […] Degrasyn for 1 to 2 h before equal protein cell extracts were immunoblotted for BCR-ABL, c-Abl, BCR, HSP90, HSP70 and actin.
K562 cells were treated with Degrasyn (5 μM) for the interval indicated before cell lysates were prepared (Soluble Fraction; prepared in buffer containing 1% NP-40, 0.5% Na-deoxycholate, 0.1% Na-dodecyl sulfate). […]
Western Blot analysis. Cells were harvested, washed twice in cold 1×PBS and lysed in modified RIPA lysis buffer (150 mM NaCl, 1% NP-40, 0.5% Na-deoxycholate [DOC], 0.1% Na-dodecyl sulfate [SDS], 50 mM Tris-HCl (pH 7.5), 1 mM EDTA, 1 mM NaF, 2 mM Na-vanadate, with protease inhibitors (1 mM PMSF, 1 mM benzamidine, 10 μg/ml aprotinin, 10 μg/ml leupeptin) on ice for 30 min. The lysed cells were centrifuged at 13,000 rpm for 30 min and the supernatant collected. The protein concentration of the cell lysate was determined by the Bradford Protein Assay. Fifty to 60 μg of protein were resolved in a 10% SDS-PAGE, and transferred to a PVDF membrane. […]
Real-Time Quantitative TR-PCR analysis of bcr/abl mRNA. […]

Experiment [1] has as its system BV-173R cells (T315I BCR-ABL). Put plainly: MTT assay after 72 h, BV-173R cells. It counts as cell-based, human. The settings on record: 72 h of drug incubation. In general terms: Tetrazolium dyes change colour on reduction, which living cells bring about.
The next experiment relates to MM-1 cells. Description: MTT assay of cell growth and survival, MM-1 cells. The experiment is classed as cell-based. The protocol: All compounds are tested for purity (HPLC, NMR) and the calculated molecular weight is used to make up a 10 mM stock solution of each compound (in 100% dimethylsulfoxide or 50% dimethylsulfoxide:50% polyethylene glycol 300). Compounds are diluted into cell culture media consisting of RPMI 1640 with 10% fetal bovine serum to a final starting concentration of 10 μM. [Highest final DMSO content=0.1%.]. Tumor cells (20,000 for non-adherent cells; 5,000 for adherent cells) are plated into individual wells of a 96-well culture plate in 0.1 ml of culture media. Diluted compounds are added to individual wells containing pre-plated cells (final volume 0.2 ml) and incubated at 37° C. for 24 to 72 h. Wells receiving vehicle alone acted as a control.
MTT (viability) assay. MTT reagent (20 μl of 5 mg/ml stock solution, Sigma) is added to the cells and the plates are incubated at 37° C. for another 2 h. Cells are lysed by adding 100 μl of lysis buffer (20% SDS in 50% N,N-dimethylformamide (Sigma) adjusted to pH 4.7 by 80% acetic acid and 1 M HCl such that the final concentration of acetic acid is 2.5% and HCl is 2.5%) into each well and incubated for 6 h. The OD570 of each sample is determined by using a SPECTRA MAX M2 plate reader (Molecular Devices). The OD in control and treated wells is used as an estimate of the effect of compounds on cell growth and survival.
Cell lines. […] A375 melanoma cells were grown and maintained in the same media. Ba/F3 parental cells were grown in RPMI 1640 containing 10% heat inactivated fetal bovine serum and 2 mM glutamine supplemented with IL-3 (1 ng/ml) while Ba/F3 cells stably expressing Bcr/Abl or the T315I mutant of Bcr/Abl were grown in RPMI 1640 containing 10% heat inactivated fetal bovine serum and 2 mM glutamine in the absence of IL-3. Normal human dermal fibroblasts (NHDF) were obtained from Cambrex (Walkersville, Md.) and grown in specially formulated media (obtained through Cambrex) with 20% fetal calf serum.
IC50 determinations. The anti-tumor activity of certain compounds of the present invention against MM-1 cell lines was investigated and the IC50 values calculated (FIGS. 33A-F). In a typical experiment, MM-1 cell lines were incubated with a range of compound concentrations for 72 h to determine the concentration required to inhibit cell growth or induce apoptosis by 50% (IC50). MTT assays as described above were used to conduct this analysis.

Turning to `CCC[C@H](NC(=O)/C(C#N)=C/c1cccc(Br)n1)c1ccccc1` [Degrasyn], the “Cytoplasmic staining of BCR-ABL (microscopy)” value on BCR-ABL (5 μM) is recorded as “reduced cytoplasmic staining of BCR-ABL”. For the same molecule, the “BCR-ABL, c-Abl, BCR, HSP90, HSP70 levels” value on BCR-ABL (5 µM, 1 to 2 h) is listed as “down-regulated”. Further, the “BCR-ABL, c-Abl and BCR protein levels” value at BCR-ABL (2 h, 5 μM) was “reduced BCR-ABL protein levels but had minimal effects on c-Abl and BCR”. The “Activity in MTT assay, BV-173R vs BV-173” value in experiment [1] is “equally active against both cell types”. For the same molecule, the IC50 is 1400 nM with MM-1 cells (FIG. 21, anti-tumor activity, read-out: IC50 for MM-1 cells) and about 1200 nM in the experiment with MM-1 cells (FIG. 31, 72 h, MTT, average of 4 determinations, read-out: IC50, MM-1 cells).
